Measurements taken from patent publication US20230414735A1, “NEOANTIGENS AND METHODS OF THEIR USE” (priority 2016, published 2023).
Where no end group is shown, it is not given here.

Tested on: HLA Class I molecules
Assay: HLA class I binding stability assay (pMHC-I complex dissociation, 125I-labeled β2m, scintillation counts)
Design: species or system human
[1] = allele A02.01, pMHC-I dissociation at 37° C.

Stability (T1/2 (h)) (allele A02.01, 37° C.) | Compound | also measured
0.7 h | CSCC[C@H](N)C(=O)N[C@@H](C)C(=O)N[C@@H](CC(C)C)C(=O)N[C@@H](CC(N)=O)C(=O)N[C@@H](CO)C(=O)N[C@@H](CCC(=O)O)C(=O)N[C@@H](C)C(=O)N[C@@H](CC(C)C)C(=O)N[C@@H](CO)C(=O)N[C@H](C(=O)O)C(C)C | –
0.5 h | CC(C)C[C@H](NC(=O)[C@H](CO)NC(=O)[C@H](CC(N)=O)NC(=O)[C@H](CS)NC(=O)[C@H](CCC(=O)O)NC(=O)[C@H](Cc1c[nH]cn1)NC(=O)[C@H](CC(C)C)NC(=O)[C@@H](NC(=O)[C@@H](N)CCC(N)=O)C(C)C)C(=O)O | –
– | LPRKPTRAAT | Stability (T1/2 (h)) (allele B07.02, 37° C.): 3.7 h
2.8 h | CC(C)C[C@H](NC(=O)[C@H](C)NC(=O)[C@@H](NC(=O)[C@H](CCCNC(=N)N)NC(=O)[C@H](CO)NC(=O)[C@H](CC(=O)O)NC(=O)[C@H](CO)NC(=O)[C@H](CC(C)C)NC(=O)[C@@H](N)CCCCN)[C@@H](C)O)C(=O)O [KLSDSRTAL] | Stability (T1/2 (h)) (allele B07.02, 37° C.): 6.8 h
– | CC(C)[C@H](NC(=O)[C@H](CO)NC(=O)[C@H](Cc1ccccc1)NC(=O)[C@H](Cc1ccccc1)NC(=O)[C@H](Cc1ccccc1)NC(=O)[C@H](Cc1ccccc1)NC(=O)[C@H](CS)NC(=O)[C@@H](NC(=O)[C@@H](N)CO)C(C)C)C(=O)O | Stability (T1/2 (h)) [1]: 9.4 h
3.8 h | MNWRPILTI | –
– | KPTRAATVSV | Stability (T1/2 (h)) (allele B07.02, 37° C.): 3 h
16.9 h | CSCC[C@H](NC(=O)[C@H](CC(C)C)NC(=O)[C@@H](N)CCCCN)C(=O)N[C@@H](CC(C)C)C(=O)N[C@@H](CC(C)C)C(=O)N[C@@H](CCCNC(=N)N)C(=O)N[C@@H](CC(C)C)C(=O)N[C@@H](CC(N)=O)C(=O)N[C@@H](CC(C)C)C(=O)O | Stability (T1/2 (h)) (allele B07.02, 37° C.): 1.5 h
– | CC[C@H](C)[C@H](NC(=O)[C@H](CC(C)C)NC(=O)[C@@H](N)CCC(N)=O)C(=O)N[C@@H](CCSC)C(=O)N[C@@H](CCC(N)=O)C(=O)N[C@@H](CC(C)C)C(=O)N[C@@H](CCSC)C(=O)N1CCC[C@H]1C(=O)N[C@@H](Cc1ccccc1)C(=O)O | Stability (T1/2 (h)) [1]: 0.3 h
0.3 h | CSCC[C@H](NC(=O)[C@H](CC(C)C)NC(=O)[C@H](CO)NC(=O)[C@H](CC(C)C)NC(=O)[C@@H]1CCCN1C(=O)[C@H](CCC(N)=O)NC(=O)[C@H](CCSC)NC(=O)[C@H](CCC(N)=O)NC(=O)[C@@H](N)Cc1ccccc1)C(=O)O | –
– | CC[C@H](C)[C@H](NC(=O)[C@H](Cc1ccccc1)NC(=O)[C@H](CCCNC(=N)N)NC(=O)[C@@H]1CCCN1C(=O)[C@H](CC(C)C)NC(=O)[C@@H](N)CO)C(=O)N[C@@H](CC(C)C)C(=O)N[C@@H](CCSC)C(=O)N[C@@H](CCC(=O)O)C(=O)N[C@@H](CC(C)C)C(=O)O | Stability (T1/2 (h)) [1]: 0.5 h; Stability (T1/2 (h)) (allele B07.02, pMHC-I dissociation at 37° C.): 0.4 h
– | KVSRENTSPK | Stability (T1/2 (h)) (allele A03.01, 37° C.): 13.5 h
10.8 h | CC(C)C[C@H](NC(=O)[C@H](CO)NC(=O)[C@H](CS)NC(=O)[C@H](CCC(=O)O)NC(=O)[C@H](Cc1c[nH]c2ccccc12)NC(=O)[C@H](CC(C)C)NC(=O)[C@H](C)NC(=O)[C@H](CC(C)C)NC(=O)[C@H](CC(C)C)NC(=O)[C@@H](N)Cc1ccccc1)C(=O)O | –
0.6 h | CC[C@H](C)[C@H](NC(=O)[C@H](CCCCN)NC(=O)[C@H](CO)NC(=O)[C@H](CCC(=O)O)NC(=O)[C@H](C)NC(=O)[C@H](CCCCN)NC(=O)[C@H](CC(C)C)NC(=O)[C@H](Cc1ccccc1)NC(=O)[C@H](CCSC)NC(=O)[C@@H](N)Cc1ccc(O)cc1)C(=O)O | Stability (T1/2 (h)) (allele B08.01, 37° C.): 0.4 h
1 h | CC[C@H](C)[C@H](NC(=O)[C@H](CCC(N)=O)NC(=O)[C@@H](N)CO)C(=O)N[C@@H](CCSC)C(=O)N[C@@H](CO)C(=O)N[C@@H](CC(C)C)C(=O)N[C@@H](Cc1c[nH]c2ccccc12)C(=O)NCC(=O)N[C@@H](CC(C)C)C(=O)O | –
1 h | CC[C@H](C)[C@H](NC(=O)[C@@H]1CCCN1C(=O)[C@H](CC(C)C)NC(=O)[C@H](Cc1ccccc1)NC(=O)[C@H](CC(C)C)NC(=O)[C@H](CO)NC(=O)[C@H](CC(=O)O)NC(=O)[C@@H](NC(=O)[C@H](CC(C)C)NC(=O)[C@@H](N)CCSC)[C@@H](C)O)C(=O)O | –
